From EP1818060A1, “Cosmetic composition comprising Fadogia ancylantha extracts” (ARTSANA S.p.A., priority 2005, dated 2007) come the findings set out here.

Marks after values point to notes of the source that are not given here.

The nature of this assay: Antioxidant activity, DPPH test. Format: biochemical. The settings on record: second SC50 column; control; in brackets tolerated range 95%. Here is the method:
The antioxidant activity of the dry extract A, obtained as above illustrated in Example 1, of Fadogia ancylantha was determined using the 2,2 diphenyl-1-picrilhydrazilic stable radical (DPPH°) and α-tocopherol as a control, according to the protocol disclosed by Aquino R. et al. in "Phenolic constituents and antioxidant activity of an extract of Anthurium versicolor leaves", J. of Natural products 64, 1019-1023.
The decrease of absorbance measured according to the above protocol is directly correlated with the free-radical scavenger ability of the antioxidant under test.
The DPPH° percentage remaining at the steady state (%DPPH°RIM) is calculated by applying the following formula %DPPH°RIM = (DPPH)° × T1 /(DPPH°) × To × 100 [formula] where T1 is the time to reach the steady state.
The amount of the antioxidant needed to reduce the radical initial concentration to a half (SC50, expressed as µg of the extract/ml) was calculated from the percentage of DPPH°RIM with respect to the antioxidant concentrations used.
All tests were carried out in triplicate and repeated for three times.
For orientation: Loss of DPPH colour is used to gauge radical scavenging.

`Cc1c(C)c2c(c(C)c1O)CC[C@@](C)(CCC[C@H](C)CCC[C@H](C)CCCC(C)C)O2` [α-tocopherol]: the “DPPH test SC50” value was 10.1 (8.8-11.4)^c µg/ml of phenols.
